Test results reported in PMC6691788, “Design and synthesis of phthalazine-based compounds as potent anticancer agents with potential antiangiogenic activity via VEGFR-2 inhibition” (Journal of Enzyme Inhibition and Medicinal Chemistry, 2019).

What was measured:
HOP-62 = experiment: NCI 60 cell panel SRB screen; type: cell-based; conditions: Homo sapiens; HOP-62, single dose 10 μM; read-out: percent cell growth promotion
HCT-116 = experiment: NCI 60 cell panel SRB screen; type: cell-based; conditions: Homo sapiens; HCT-116, single dose 10 μM; read-out: percent cell growth promotion
HCT-15 = experiment: NCI 60 cell panel SRB screen; type: cell-based; conditions: Homo sapiens; HCT-15, single dose 10 μM; read-out: percent cell growth promotion
SF-295 = experiment: NCI 60 cell panel SRB screen; type: cell-based; conditions: Homo sapiens; SF-295, single dose 10 μM; read-out: percent cell growth promotion
SNB-19 = experiment: NCI 60 cell panel SRB screen; type: cell-based; conditions: Homo sapiens; SNB-19, single dose 10 μM; read-out: percent cell growth promotion
U251 = experiment: NCI 60 cell panel SRB screen; type: cell-based; conditions: Homo sapiens, U-251; U251, single dose 10 μM; read-out: percent cell growth promotion
M14 = experiment: NCI 60 cell panel SRB screen; type: cell-based; conditions: Homo sapiens, M14, read-out: percent cell growth promotion
MDA-MB-435 = experiment: NCI 60 cell panel SRB screen; type: cell-based; conditions: Homo sapiens, MDA-MB-435, read-out: percent cell growth promotion
SK-MEL-5 = experiment: NCI 60 cell panel SRB screen; type: cell-based; conditions: Homo sapiens, SK-MEL-5, read-out: percent cell growth promotion
UACC-62 = experiment: NCI 60 cell panel SRB screen; type: cell-based; conditions: Homo sapiens, UACC-62, read-out: percent cell growth promotion
A498 = experiment: NCI 60 cell panel SRB screen; type: cell-based; conditions: Homo sapiens; A498, single dose 10 μM; read-out: percent cell growth promotion
ACHN = experiment: NCI 60 cell panel SRB screen; type: cell-based; conditions: Homo sapiens, single dose 10 μM, read-out: percent cell growth promotion
CAKI-1 = experiment: NCI 60 cell panel SRB screen; type: cell-based, human; conditions: Homo sapiens; CAKI-1, single dose 10 μM; read-out: percent cell growth promotion
SN12C = experiment: NCI 60 cell panel SRB screen; type: cell-based; conditions: Homo sapiens, single dose 10 μM, read-out: percent cell growth promotion
DU-145 = experiment: NCI 60 cell panel SRB screen; type: cell-based; conditions: Homo sapiens; DU-145, single dose 10 μM; read-out: percent cell growth promotion
MCF7 = experiment: NCI 60 cell panel SRB screen; type: cell-based; conditions: Homo sapiens, MCF7, read-out: percent cell growth promotion
MDA-MB 231/ATCC = experiment: NCI 60 cell panel SRB screen; type: cell-based; conditions: Homo sapiens, MDA-MB-231, read-out: percent cell growth promotion
HS 578T = experiment: NCI 60 cell panel SRB screen; type: cell-based; conditions: Homo sapiens, Hs-578T, read-out: percent cell growth promotion
full NCI 60 cell panel = experiment: NCI 60 cell panel SRB screen, whole panel; type: cell-based, human

SMILES: CCOC(=O)N1CCN(c2nnc(C)c3ccccc23)CC1 [Compound 8f, Ethyl 4–(4-methylphthalazin-1-yl)piperazine-1-carboxylate]
- activity at 10 µM (HOP-62): 100%
- activity at 10 µM (HCT-116): 103%
- activity at 10 µM (HCT-15): 98.6%
- activity at 10 µM (SF-295): 94.2%
- activity at 10 µM (SNB-19): 107%
- activity at 10 µM (U251): 96%
- activity at 10 µM (M14): 104%
- activity at 10 µM (MDA-MB-435): 97.4%
- activity at 10 µM (SK-MEL-5): 97.5%
- activity at 10 µM (UACC-62): 109%
- activity at 10 µM (A498): 76.5%
- activity at 10 µM (ACHN): 107%
- activity at 10 µM (CAKI-1): 90.3%
- activity at 10 µM (SN12C): 101%
- activity at 10 µM (DU-145): 100%
- activity at 10 µM (MCF7): 92.1%
- activity at 10 µM (MDA-MB 231/ATCC): 114%
- activity at 10 µM (HS 578T): 106%
- activity at 10 µM (full NCI 60 cell panel; Homo sapiens, 60 cell, mean over the panel, single dose 10 μM, read-out: Mean percent cell growth promotion): 101%
- cell growth inhibition, in words (full NCI 60 cell panel; single dose 10 µM): nor the piperazines (8a, 8d, 8f, 8g, 8h and 8i) showed any significant cell line growth inhibition
